Results from patent EP4595983A1, “NANOPARTICLES FUNCTIONALISED WITH A STABILISING AGENT AND A TARGETING AGENT” (BXTA Nanotherapy Limited, priority 2024, dated 2025).
Peptide text beside a SMILES is read from it. * marks the point of attachment. Palmitoyl = CCCCCCCCCCCCCCCC(=O)*

Key:
sh1102 cells = test: Alamar blue viability assay; format: cell-based; settings: pepducin exposure; comparative pepducin effect at both 300 nM and 600 nM
Method: (§1) Alamar blue viability assays assessed the impact of inhibiting CXCL8 pro-inflammatory signalling on the viability of various PCa cell lines (Figure 28). Three increasing concentrations of pepducin (150 nM, 300 nM and 600 nM) were assayed following a 6 h incubation. Following exposure to pepducin cells were washed in PBS and 10% Alamar blue solution added for 4 h. Fluorescence was then measured at 540 - 570 nm. […] (N = 4 +/- SEM).
(§2) Following exposure to pepducins, cells were washed in PBS and 10% Alamar blue solution added for 4 h. Fluorescence was then measured at 540 - 570 nm. […] (N=4 +/- SEM).

DU145 parental cells = test: Alamar blue viability assay; format: cell-based; settings: pepducin exposure; comparative pepducin effect at both 300 nM and 600 nM
Method: as §1, §2

NT01 = test: Alamar blue viability assay; format: cell-based; settings: pepducin exposure; comparative pepducin effect at both 300 nM and 600 nM
Method: as §1, §2

PC3 cells = test: Alamar blue viability assay; format: cell-based; settings: 6 h; for reduction in viability: 300 nM; for cell viability (significance): 150 nM, 300 nM and 600 nM
Method: as §1

various PCa cell lines = test: Alamar blue viability assay; format: cell-based; settings: 150 nM, 300 nM and 600 nM, 6 h incubation
Method: as §1

[1] = Solubility (peptide characteristics); format: physicochemical

Row | Solubility [1] | Compound | cell viability / toxicity (sh1102 cells) | cell viability / toxicity (DU145 parental cells) | cell viability / toxicity (NT01) | reduction in viability (PC3 cells) [%] | cell viability (various PCa cell lines) | cell viability (significance) (PC3 cells)
1 | – | CCCCCCCCCCCCCCCC(=O)N[C@@H](CCCNC(=N)N)C(=O)N[C@H](C(=O)N[C@@H](CC(C)C)C(=O)N[C@@H](Cc1ccccc1)C(=O)N[C@@H](CCCCN)C(=O)N[C@@H](C)C(=O)N[C@@H](Cc1c[nH]cn1)C(=O)N[C@@H](CCSC)C(=O)NCC(=O)N[C@@H](CCC(N)=O)C(=O)N[C@@H](CCCCN)C(=O)N[C@@H](Cc1c[nH]cn1)C(=O)N[C@@H](CCCNC(=N)N)C(N)=O)[C@@H](C)O [comparative pepducin] (Palmitoyl-RTLFKAHMGQKHR-NH2) | significantly reduced cell viability | significantly reduced cell viability | significantly reduced cell viability | 25 | did not significantly reduce cell viability | –
2 | – | scrambled control: scrambled control (corresponding to SEQ ID 7) (Palmitoyl-TRFLAKMHQGHKRC-NH2; SMILES CCCCCCCCCCCCCCCC(=O)N[C@H](C(=O)N[C@@H](CCCNC(=N)N)C(=O)N[C@@H](Cc1ccccc1)C(=O)N[C@@H](CC(C)C)C(=O)N[C@@H](C)C(=O)N[C@@H](CCCCN)C(=O)N[C@@H](CCSC)C(=O)N[C@@H](Cc1c[nH]cn1)C(=O)N[C@@H](CCC(N)=O)C(=O)NCC(=O)N[C@@H](Cc1c[nH]cn1)C(=O)N[C@@H](CCCCN)C(=O)N[C@@H](CCCNC(=N)N)C(=O)N[C@@H](CS)C(N)=O)[C@@H](C)O) | did not show any significant toxicity | did not show any significant toxicity | did not show any significant toxicity | – | did not significantly reduce cell viability | no significant affects
3 | 1:4 (Acetonitirile:H2O) | CCCCCCCCCCCCCCCC(=O)N[C@@H](CCCNC(=N)N)C(=O)N[C@H](C(=O)N[C@@H](CC(C)C)C(=O)N[C@@H](Cc1ccccc1)C(=O)N[C@@H](CCCCN)C(=O)N[C@@H](C)C(=O)N[C@@H](Cc1c[nH]cn1)C(=O)N[C@@H](CCSC)C(=O)NCC(=O)N[C@@H](CCC(N)=O)C(=O)N[C@@H](CCCCN)C(=O)N[C@@H](Cc1c[nH]cn1)C(=O)N[C@@H](CCCNC(=N)N)C(=O)N[C@@H](CS)C(N)=O)[C@@H](C)O [SEQ ID 3, Pal-RTLFKAHMGQKHRC-NH2] (Palmitoyl-RTLFKAHMGQKHRC-NH2) | did not show any significant toxicity | did not show any significant toxicity | did not show any significant toxicity | 8 | did not significantly reduce cell viability | no significant reduction in viability
